Reference: patent US5504071A, “Compounds with a sequence of three radicals, the central one being α- a” (Polifarma S.p.A., priority 1990, dated 1996)
Square brackets hold non-standard residues; d marks the D form. Peptide text beside a SMILES is read from it. * marks the point of attachment. Trp(1-Me) = Cn1cc(C[C@H](N)C(=O)O)c2ccccc21; Tic = O=C(O)[C@@H]1Cc2ccccc2CN1; pGlu = O=C1CC[CH](C(=O)O)N1; Hyp = O=C(O)[CH]1C[CH](O)CN1; Phg = N[CH](C(=O)O)c1ccccc1; ΔPro = O=C(O)[C@@H]1C=CCN1; Pip = O=C(O)[C@@H]1CCCCN1; αMeP = C[C]1(C(=O)O)CCCN1; Cbz = O=C(OCc1ccccc1)*; Aze = O=C(O)[CH]1CCN1; Boc = CC(C)(C)OC(=O)*

Legend:
[1] = system: spontaneously hyper-tensive rats (SHR); experiment: pressure tests in awake spontaneously hypertensive rats; type: in vivo
Excerpt: (§1) In the following examples will first of all be given the data necessary for synthesis of the compounds according to the present invention. There will then be given data regarding their pharmacological activity, using methods widely known to be valid. In particular, for the pressure tests, spontaneously hyper-tensive rats were used (SHR from the company Charles River), operated in such a way as to enable pressure to be read even when the animals were awake and free to move. In order to evaluate the analgesic activity, the Hot Plate and Writhing Tests were used. For the anti-inflammatory effect the test of carraginine edema was used. Finally, for immuno-modulating activity the evaluation of the stimulation of growth of human lymphocytes in culture was resorted to, after the addition of specific antigens. The results obtained for each synthesized compound are given at the end of each example.

[2] = Hot Plate test (analgesic activity); type: in vivo
Excerpt: as §1

[3] = system: human lymphocytes in culture; experiment: stimulation of growth of human lymphocytes in culture after addition of specific antigens; type: cell-based; conditions: for immune response (immuno-stimulating activity): antigen not stated
Excerpt: as §1

[4] = Writhing test (analgesic activity); type: in vivo; conditions: dose not stated
Excerpt: as §1

[5] = analgesic activity, test not specified (Hot Plate and Writhing Tests); type: in vivo; conditions: test and dose not stated
Excerpt: as §1

carraginine edema = carraginine edema test (anti-inflammatory effect); type: in vivo; conditions: dose not stated
Excerpt: as §1

SMILES	anti-hypertensive effect ([1]; dose not stated)	immune response (immuno-stimulating activity) [3]	anti-inflammatory effect (carraginine edema)	further results
CCOC(=O)[C@@H]1Cc2c([nH]c3ccccc23)CN1C(=O)[C@H](C)NC(=O)[C@@H]1CCCN1C(=O)OCc1ccccc1 [compound 1, Z-(L)-Pro-(L)-Ala-(S)-CytOEt]	–	–	–	anti-hypertensive effect ([1]; 4 mg/Kg i.p.): good anti-hypertensive effect; duration of the anti-hypertensive effect ([1]; 4 mg/Kg i.p.): maintained for a number of hours; pain killing effect under the Hot Plate test ([2]; 4 mg/Kg i.p.): slight pain killing effect; response of lymphocytes stimulated by phytohemoagglutinine (PHA) ([3]; PHA stimulation): increases the response of lymphocytes
C[C@H](NC(=O)[C@@H]1CCCN1C(=O)OCc1ccccc1)C(=O)NCCc1c[nH]c2ccccc12 [compound 2, Z-(L)-Pro-(L)-Ala-TrpH]	comparable to that of compound 1	increased, but to a lesser extent than in the previous compound	–	–
C[C@H](NC(=O)[C@@H]1CCCN1C(=O)OCc1ccccc1)C(=O)N1CCc2c([nH]c3ccccc23)C1 [compound 3, Z-(L)-Pro-(L)-Ala-CytH]	–	–	–	anti-hypertensive effect ([1]; 8 mg/Kg i.p.): bland anti-hypertensive effect
COC(=O)[C@H](Cc1ccc(OC)cc1)NC(=O)[C@H](C)NC(=O)[C@@H]1CCCN1C(=O)OCc1ccccc1 [compound 4, Z-(L)-Pro-(L)-Ala-(L)-OmtOMe] (Cbz-Pro-Ala-Tyr(Me)-OMe)	–	slightly increased	–	anti-hypertensive effect ([1]; 8 mg/Kg i.v.): bland anti-hypertensive effect
COC(=O)[C@@H](NC(=O)[C@H](C)NC(=O)[C@@H]1CCCN1C(=O)OCc1ccccc1)c1ccccc1 [compound 5, Z-(L)-Pro-(L)-Ala-(L)-PhgOMe] (Cbz-Pro-Ala-[Phg]-OMe)	–	–	–	anti-hypertensive effect ([1]; 8 mg/Kg i.p.): bland anti-hypertensive effect; analgesic effect using the Hot Plate test ([2]; dose not stated): moderate analgesic effect
COC[C@H](Cc1ccccc1)NC(=O)[C@H](C)NC(=O)[C@@H]1CCCN1C(=O)OCc1ccccc1 [compound 6, Z-(L)-Pro-(L)-Ala-(L)-Pme]	–	more consistent	rather weak	anti-hypertensive effect ([1]; 2 mg/Kg i.v.): good anti-hypertensive activity; reduction of pressure ([1]; 2 mg/Kg i.v., after one hour): approximately 25%; extension of time in the Hot Plate test ([2]; dose not stated): 25%; reduction of contorsions during the Writhing test [4]: 70%; analgesic activity [5]: good analgesic activity
COC(=O)[C@H](Cc1cn(C)c2ccccc12)NC(=O)[C@H](C)NC(=O)[C@@H]1CCCN1C(=O)OCc1ccccc1 [compound 7, Z-(L)-Pro-(L)-Ala-(1)-Me-(L)-TrpOMe] (Cbz-Pro-Ala-[Trp(1-Me)]-OMe)	–	–	–	anti-hypertensive effect ([1]; 2 mg/Kg i.v.): good anti-hypertensive effect; reduction of pressure ([1]; 2 mg/Kg i.v.): 10%
COC(=O)[C@H](Cc1c[nH]c2ccccc12)NC(=O)[C@H](CC(C)C)NC(=O)c1ccco1 [compound 8, 2-Fur-(L)-Leu-(L)-TrpOMe]	–	strongly stimulated even with small doses of peptide	slight anti-inflammatory effect	anti-hypertensive effect ([1]; 4 mg/Kg i.v.): slight anti-hypertensive effect
COC(=O)[C@H](Cc1c[nH]c2ccccc12)NC(=O)[C@H](CC(C)C)NC(=O)c1ccc[nH]1 [compound 9, 2-Pyrrolyl-(L)-Leu-(L)-TrpOMe]	slight effect on pressure	–	bland reduction of inflammatory responses	–
COC(=O)C(Cc1c[nH]c2ccccc12)NC(=O)C(CC(C)C)NC(=O)C1CCCN1C.Cl (centres unmarked) [compound 10, N-Me-(L)-Pro(L)-Leu-(L)-TrpOMe.HCl]	–	slightly increased	–	anti-hypertensive effect ([1]; 2 mg/Kg i.v.): excellent anti-hypertensive effect; analgesic activity [5]: low analgesic effect
COC(=O)[C@@H]1Cc2ccccc2CN1C(=O)[C@H](C)NC(=O)[C@@H]1CCCN1C(=O)OCc1ccccc1 [compound 11, Z-(L)-Pro-(L)-Ala-CypOMe] (Cbz-Pro-Ala-[Tic]-OMe)	slight anti-hypertensive effect	–	moderate anti-inflammatory effect	–
COC(=O)C(Cc1c[nH]c2ccccc12)NC(=O)C(CC(C)C)NC(=O)C1(C)CCCN1C(=O)OC(C)(C)C (stereo not drawn) [compound 12, Boc-(L)-Mep-(L)-Leu-(L)TrpOMe] (Boc-[αMeP]-Leu-Trp-OMe; configuration not given here)	bland anti-hypertensive effect	–	reduction of the inflammatory response	–
COC(=O)[C@H](Cc1c[nH]c2ccccc12)NC(=O)[C@H](CC(C)C)NC(=O)[C@@H]1C=CCN1C(=O)OC(C)(C)C [compound 13, Boc-.gradient.^3.4 -(L)-Pro-(L)-Leu-(L)-TrpOMe] (Boc-[ΔPro]-Leu-Trp-OMe)	slightly anti-hypertensive	slightly increases the immune response	–	–
COC(=O)[C@H](Cc1c[nH]c2ccccc12)NC(=O)[C@H](CC(C)C)NC(=O)[C@@H]1Cc2ccccc2N1C(=O)OCc1ccccc1 [compound 14, Z-(S)-Dhi-(L)-Leu-(L)-TrpOMe]	bland reduction of pressure	–	–	analgesic activity [5]: moderate analgesic effect
COC(=O)[C@H](Cc1c[nH]c2ccccc12)NC(=O)[C@H](CC(C)C)NC(=O)[C@@H]1CCCCN1C(=O)OCc1ccccc1 [compound 15, Z-(L)-Pip-(L)-Leu-(L)-TrpOMe] (Cbz-[Pip]-Leu-Trp-OMe)	–	slight increase in immune response	consistent	anti-hypertensive effect ([1]; 2 mg/Kg i.v.): good anti-hypertensive effect; reduction of pressure ([1]; 2 mg/Kg i.v.): up to 30%
COC(=O)C(Cc1c[nH]c2ccccc12)NC(=O)C(CC(C)C)NC(=O)C1CC(O)CN1C(=O)OCc1ccccc1 (stereo not drawn) [compound 16, Z-(L)-Hyp-(L)-Leu-(L)-TrpOMe] (Cbz-[Hyp]-Leu-Trp-OMe; configuration not given here)	bland anti-hypertensive action	–	–	analgesic activity [5]: modest analgesic effect
COC(=O)C(Cc1c[nH]c2ccccc12)NC(=O)C(CC(C)C)NC(=O)C1CCN1C(=O)OCc1ccccc1 [compound 17, Z-(S)-Aze-(L)-Leu-(L)-TrpOMe] (Cbz-[Aze]-Leu-Trp-OMe; configuration not given here)	slight anti-hypertensive effect	–	bland anti-inflammatory activity	–
COC(=O)[C@H](Cc1c[nH]c2ccccc12)NC(=O)[C@H](CC(C)C)NC(=O)[C@@H]1CCCO1 [compound 18, (S)-Tfc-(L)-Leu-(L)-TrpOMe]	bland anti-hypertensive effect	stimulates the immune response in a moderate manner	–	–
COC(=O)[C@H](Cc1c[nH]c2ccccc12)NC(=O)[C@H](CC(C)C)NC(=O)[C@@H]1CCC(=O)N1C(=O)OCc1ccccc1 [compound 19, Z-(L)-Pyr-(L)-Leu-(L)-TrpOMe]	slight anti-hypertensive effect	–	fair anti-inflammatory activity	–
COC(=O)[C@@H]1Cc2c([nH]c3ccccc23)CN1C(=O)[C@H](CC(C)C)NC(=O)[C@@H]1CCC(=O)N1C(=O)OCc1ccccc1 [compound 20, Z-(L)-Pyr-(L)-Leu-(S)-CytOMe]	bland anti-hypertensive activity	–	fair anti-inflammatory activity	–
COC(=O)[C@@H]1Cc2ccccc2CN1C(=O)[C@H](CC(C)C)NC(=O)[C@@H]1CCC(=O)N1C(=O)OCc1ccccc1 [compound 21, Z-CL)-Pyr-(L)-Leu-(S)-CypOMe]	slight anti-hypertensive activity	good immuno-stimulating activity	–	–
COC(=O)C(NC(=O)CNC(=O)C1CCC(=O)N1)c1ccccc1 (stereo not drawn) [compound 22, (L)-Pyr-Gly-(L)-PhgOMe] ([pGlu]-Gly-[Phg]-OMe; configuration not given here)	–	appears to increase the immune response	very good	anti-hypertensive effect ([1]; 4 mg/Kg i.p.): excellent anti-hypertensive activity; reduction of pressure values ([1]; 4 mg/Kg i.p.): 20%; reduction of edema (carraginine edema): 70%
COC[C@H](Cc1ccccc1)NC(=O)CNC(=O)[C@@H]1CCC(=O)N1 [compound 23, (L)-Pyr-Gly-(L)-Pme]	–	good immuno-stimulating effect	–	anti-hypertensive effect ([1]; 8 mg/Kg i.p.): good anti-hypertensive activity; reduction of contorsions during the Writhing test [4]: 80%; analgesic activity [5]: excellent analgesic effect
COC(=O)[C@@H]1Cc2ccccc2CN1C(=O)CNC(=O)[C@@H]1CCC(=O)N1 [compound 24, (L)-Pyr-Gly-(L)-CypOMe] ([pGlu]-Gly-[Tic]-OMe)	bland anti-hypertensive action	–	moderate anti-inflammatory action	–
COC(=O)[C@@H]1Cc2c([nH]c3ccccc23)CN1C(=O)[C@H](CC(C)C)NC(=O)[C@@H]1CCC(=O)N1 [compound 25, (L)-Pyr-(L)-Leu-(S)-CytOMe]	bland anti-hypertensive effect	–	–	analgesic activity [5]: weak analgesic activity
